Results: US20240415985A1, “PHOTOCLEAVABLE PRODRUG-BASED NANOMEDICINE FOR IN-SITU MONITORABLE CANCER THERAPY” (The University of Hong Kong, priority 2021, published 2024)
Like-named read-outs stand apart in the source and are kept apart here.

Tests used:
HCT116 cells [1] = test: Anti-proliferation effect by MTT assay; assay type: cell-based, human
Description: (§1) HCT116 cells were cultured in RPMI-1640 (Gibco) supplemented with 10% FBS (Gibco) and 100 units/mL antibiotics (Penicillin-Streptomycin, Gibco) at 37° C. in a 5% CO2 humidified atmosphere. HUVECs cells were cultured in DMEM (Gibco) supplemented with 10% FBS (Gibco) and 100 units/mL antibiotics (Penicillin-Streptomycin, Gibco) at 37° C. in a 5% CO2 humidified atmosphere.
(§2) The cell viability was evaluated by MTT assay. HCT116 cells were incubated in 96-well microliter plates for 24 h. Then, gradient concentrations of BC prodrug or IR783/BC NPs in RPMI 1640 culture medium were added to the cells. After 6 h incubation, the residual BC or IR783/BC NPs were removed by fresh RPMI 1640 culture medium (100 μL). Then, the cells were irradiated by 530 nm LED light (50 mW/cm^2, 5 min) or incubated at room temperature without light. After another incubation for 24 h, MTT solution (10 μL, 10 mg/mL) was added to the cells to cultivate for 3 h. Next, the cell culture medium was discarded, and DMSO (100 μL) was then added. The absorbance was measured by a multi-mode microplate reader at 490 nm, 570 nm and 630 nm.

HCT116 cells [2] = test: Apoptosis study (Annexin-V FITC/PI, flow cytometry); assay type: cell-based, human; conditions: 20 μM, with or without light irradiation
Description: For apoptosis study, HCT116 cells were seeded in 6-well plates at a density of 50000 cells/well and treated with free Cb or IR783/BC NPs at the equivalent concentration of Cb at 5 μM and 20 μM for 6 h. Then the cells were washed by PBS. The cells in the irradiation group were irradiated by light for 5 min. After 24-h incubation, cells were washed by PBS, collected by trypsin digestion, and stained with Annexin-V/FITC apoptosis kit. ACEA NovoCyte Quanteon flow cytometer (ACEA Biosciences, San Diego, CA, USA) was used for cell study.

HCT116 xenografts = test: In vivo antitumor efficacy; design: species or system BALB/c nude mice; conditions: without light irradiation, i.v. Day 0, 4, 8, 12
Description: BALB/c nude mice were purchased from SLAC Experiment Animal Co., Ltd. (Shanghai, China) and kept in the Laboratory Animal Center of Fudan University (Shanghai, China). For the subcutaneous tumor model, male BALB/c nude mice were injected with 2×10^7 HCT116 cells subcutaneously. The mice were then further kept in SPF condition for 5-7 days until tumors were observed.
The antitumor efficacy of IR783/BC NPs in the presence or absence of light was investigated in HCT116 tumor mouse model. The mice were randomly divided into six groups when the tumor size reached about 200 mm^3. For different groups, mice were treated with different formulations via i.v. injection at Day 0, 4, 8, and 12: (1) PBS; (2) PBS+hv; (3) IR783+hv; (4) Cb; (5) IR783/BC NPs; (6) IR783/BC NPs+hv. For the irradiation group, light irradiations (100 mW/cm^2, 10 min) were performed 24 h post injection. The dose for each treatment was set as 5 mg/kg. Tumor sizes and body weights were measured in a 2-day interval, and the tumor volume was calculated as V=½×width^2×length. At the end of the experiment (Day 14), all mice were euthanized, and the tumors and major organs were collected and sliced for H&E staining and immunohistochemical analysis.

[3] = refs [17, 39]; cited from earlier work
[4] = Spectrum study of dye degradation under light irradiation (absorbance, fluorescence); assay type: physicochemical; conditions: for decomposition of dye upon light irradiation: 530 nm, in ICG/BC NPs and IR820/BC NPs (FIGS. 2K-2M)
Description: At different time points, the absorbance and fluorescence were measured by spectrometers without any dilution.

[5] = Loading capacity and encapsulation efficiency of IR783 and BC in NPs by HPLC; assay type: physicochemical
Description: BODIPY-Cb was dissolved in DMSO (20 μL, 10 mg/mL), and added dropwise to a 300 μL aqueous solution containing IR783 (400 μg/mL) under vigorous vortex. The solution was centrifuged once (2000×g, 10 min, 4° C.) to remove the precipitate. Then the supernatant was centrifuged twice (30,000×g, 30 min, 4° C.), and the resulting precipitate was re-suspended in 300 μL of sterile PBS. Other prodrug/dye NPs were prepared following the same procedure as above. The contents of IR783 and BC in the resulted nanoparticle solution were determined by HPLC analysis. Their loading capacity and encapsulation efficiency were calculated as follow: […]

HCT116 cells [6] = test: Live/dead staining (Calcein-AM/PI); assay type: cell-based, human; conditions: BC equivalent 50 μM; groups with or without 530 nm irradiation as stated
Description: For live/dead staining, HCT116 cells were seeded in confocal dishes at a density of 10000 cells/well and treated with PBS, free IR783, free BC and IR783/BC NPs with an equivalent concentration of BC at 50 μM. For the irradiation groups, cells were washed by PBS after 6 h and irradiated by 530 nm LED for 5 min. Calcein-AM and PI were then added into the medium and the cells were observed by CLSM without any treatment.

[7] = tested on: human umbilical vein endothelial cells (HUVECs); test: Cytotoxicity in dark, biocompatibility evaluation; assay type: cell-based; conditions: 24 h, up to 100 μM
Description: as §1, §2

[8] = Singlet oxygen detection in solution (SOSG assay); assay type: physicochemical; conditions: 530 nm, 50 mW/cm^2, 0-1 min; equivalent concentration of BC
Description: Singlet oxygen generation was measured both in solutions and cells using SOSG and DCFH-DA as indicator, respectively. […] Besides, the intracellular ^1O2 generation was detected by CLSM. […] Subsequently, the cells were washed with PBS for 3 times and incubated with DCFH-DA (10 μM) for 30 min. The cells were irradiated by LED (530 nm, 50 mW/cm^2, 5 min) for the light irradiation groups. The intracellular fluorescence was observed by CLSM imaging to evaluate the ^1O2 generation.

[9] = In vivo biodistribution by fluorescence imaging in HCT116 tumor-bearing mice; design: species or system BALB/c nude mice; conditions: i.v., imaging 1-24 h post injection
Description: The biodistribution of IR783/BC NPs in the HCT116 tumor model was visualized by an in vivo fluorescence imaging system (Cailper PerkinElemer, Waltham, MA, United States). IR783, as a NIR fluorescent dye, was directly detected for living imaging. Mice were treated with free IR783 and IR783/BC NPs via intravenous injection with a dose of IR783 at 100 μg/kg. Fluorescence imaging was performed at 1, 6, 16, 20, and 24 h post injection. At 24 h, mice were euthanized and the tumors and major organs (heart, liver, spleen, lung, kidney) were excised for ex vivo imaging.

O=C(O)CCCc1ccc(N(CCCl)CCCl)cc1 [chlorambucil, Chlorambucil]
cytotoxicity of free drug (HCT116 cells [1]; with/without light irradiation (FIG. 8B)): relatively low
apoptosis (HCT116 cells [2]): about 5%
anti-tumor efficacy (HCT116 xenografts): undermined
hydrolysis in aqueous solution [3]: rapidly hydrolyze

CC1(C)C(=CC=C2CCCC(C=CC3=[N+](CCCCS(=O)(=O)[O-])c4ccc5ccccc5c4C3(C)C)=C2Cl)N(CCCCS(=O)(=O)[O-])c2ccc3ccccc3c21.[Na+] [IR820]
decomposition of dye upon light irradiation [4]: decomposed

boron-dipyrromethene-chlorambucil [BC]
Encapsulation Efficiency ([5]; listed as BC prodrug): 84.37%
Loading Capacity ([5]; listed as BC prodrug): 98.85%
Encapsulation Efficiency ([5]; listed as BODIPY-Cb): 84.37%
Loading Capacity ([5]; listed as BODIPY-Cb): 98.85%
IC50 (HCT116 cells [1]; 530 nm light irradiation, on BC prodrug basis, read-out: IC50 (cell viability)): 9.24 µM
cell death in live-dead staining (HCT116 cells [6]): dead cells presenting red fluorescence were observed

CC1(C)C(=CC=C2CCCC(C=CC3=[N+](CCCCS(=O)(=O)[O-])c4ccccc4C3(C)C)=C2Cl)N(CCCCS(=O)(=O)[O-])c2ccccc21.[Na+] [IR783]
Encapsulation Efficiency [5]: 0.02%
Loading Capacity [5]: 1.15%
NIR fluorescence emission pattern upon light irradiation ([4]; 530 nm light irradiation): did not see similar phenomena
cytotoxicity in dark [7]: Negligible cytotoxicity
^1O2 generation (SOSG fluorescence) [8]: much lower efficiency
whole-body fluorescence retention after systemic administration [9]: fleetly eliminated

CC1(C)C(/C=C/C=C/C=C/C=C2\N(CCCCS(=O)(=O)O)c3ccc4ccccc4c3C2(C)C)=[N+](CCCCS(=O)(=O)[O-])c2ccc3ccccc3c21 [ICG, Indocyanine green]
decomposition of dye upon light irradiation [4]: decomposed
